Counter-ions that a name gives are not always drawn.
Legend:
[1] = tested on: Escherichia coli (ATCC number: 25922); experiment: Phototoxicity test (photodynamic inactivation, CFU count by Miles and Misra); type: cell-based; details: irradiated at 50 mW/cm^2, 210 sec, 390-500 nm, CFU/ml counted after 24 h, median of 3
Method: (§1) A sample of the bacterial strain Staphylococcus aureus (ATCC number: 25923) or Escherichia coli (ATCC number: 25922) was taken from a cryogenically frozen culture, isolated on Müller-Hinton agar plates and cultivated under aerobic conditions at 37° C. in an overnight culture. Thereafter, 5 ml of Müller-Hinton liquid medium were inoculated with a smear of the bacterial culture (single colony) and incubated at 37° C. overnight. The bacterial suspension thus obtained was centrifuged at 2500 rpm for 10 min and the bacterial pellet obtained was resuspended in 5 ml of sterile PBS. The optical density of the bacterial suspension for the phototoxicity tests was OD600 nm=0.6, which corresponds to a bacteria count of ˜[…] bacteria per ml. The biochemical analysis and resistance determination of the bacteria were conducted with the VITEK2 system according to the M100-S14 guidelines from the NCCLS (2004).
(§2) 200 μl of a bacterial suspension (bacterial density: 10^8-10^12/ml) were incubated with 200 μl of each of various concentrations of the photosensitizers to be tested at room temperature for 10 min or 30 min. Thereafter, the bacteria were washed twice with distilled water and resuspended in 200 μl of distilled water, and the entire volume was transferred to a 96-well microtiter plate and then irradiated. The photosensitizers used were dissolved in distilled water and various dilution series were prepared (0 μM, 1 μM, 10 μM, 100 μM).
(§3) For sensitization, the Omnicure Series 2000 lamp (Photonics Solutions Inc., Edinburgh, UK) was used, which emits light from a range from 390 nm to 500 nm and has emission maxima Emax at 405 nm and 436 nm. The power applied in each case was 50 mW/cm^2.
(§4) Irradiated and unirradiated samples were used as controls. Likewise run were bacterial suspensions incubated only with photosensitizer (dark control).
(§5) The determination of the colony-forming units (CFU) per ml was conducted by the method published by Miles and Misra (Miles, A A; Misra, S S, Irwin, J O (1938 November). “The estimation of the bactericidal power of the blood.”. The Journal of hygiene 38 (6): 732-49). For this purpose, serial dilutions from 10^−2 to 10^−9 of the corresponding bacterial suspension were prepared. 3×20 μl of each of the corresponding bacterial dilutions were then dripped onto Müller-Hinton plates and incubated at 37° C. for 24 h. Thereafter, the number of surviving colony-forming units (CFU) was determined. Each of the experiments was repeated three times.
(§6) The effectiveness of phototoxicity with respect to bacteria after irradiation was defined according to the following guidelines for hand hygiene in the health sector (Boyce, J. M., and D. Pittet. 2002. Guideline for Hand Hygiene in Health-Care Settings: recommendations of the Healthcare Infection Control Practices Advisory Committee and the HICPAC/SHEA/APIC/IDSA Hand Hygiene Task Force. Infect Control Hosp Epidemiol 23: p. 3-40): • reduction in the CFU/ml by 1 log10 stage ? 90% effectiveness • reduction in the CFU/ml by 3 log10 stages ? 99.9% effectiveness • reduction in the CFU/ml by 5 log10 stages ? 99.999% effectiveness
(§7) For effective inactivation, the decrease of ≧3 log10 stages can therefore be adopted, and S. aureus and E. coli were chosen as examples of representatives from the group of the Gram-positive and Gram-negative bacteria (see Boyce J. M and D. Pittet 2009).

[2] = tested on: Staphylococcus aureus (ATCC number: 25923); experiment: as above; type: cell-based; details: irradiated at 50 mW/cm^2, 210 sec, 390-500 nm, CFU/ml counted after 24 h, median of 3
Method: as §1, §2, §3, §4, §5, §6, §7

Structure (SMILES)	Required concentration [μM] to achieve a reduction by ≧3log10 stages (decrease by 99.9%), irradiation at 10.5 J/cm^2, E. coli ([1]; incubation 30 min)	Required concentration [μM] to achieve a reduction by ≧3log10 stages (decrease by 99.9%), irradiation at 10.5 J/cm^2, S. aureus ([2]; incubation 30 min)	Required concentration [μM] to achieve a reduction by ≧3log10 stages (decrease by 99.9%), irradiation at 10.5 J/cm^2, E. coli ([1]; incubation 10 min)	Required concentration [μM] to achieve a reduction by ≧3log10 stages (decrease by 99.9%), irradiation at 10.5 J/cm^2, S. aureus ([2]; incubation 10 min)
CCCCn1c2nc(=O)n(CC[N+](C)(C)C)c(=O)c-2nc2cc(C)c(C[N+](CC)(CC)CC)cc21.[Br-].[Br-] [FL-15, [10-butyl-3-(2-trimethylammoniumethyl)-7-methyl-2,4-dioxo-2,3,4, 10-tetrahydrobenzo[g]pteridin-8-ylmethyl]triethylammonium dibromide]	10 μM	10 μM	–	–
Cc1cc2nc3c(=O)[nH]c(=O)nc-3n(CCNCCN)c2cc1C.Cl.Cl [FL-27, (2-aminoethyl)-[2-(7,8-dimethyl-2,4-dioxo-3,4-dihydro-2H-benzo[g]pteridin-10-yl)ethyl]amine dihydrochloride]	100 μM	10 μM	–	–
CC(=O)OCC(OC(C)=O)C(OC(C)=O)C(Cn1c2nc(=O)n(CCC[n+]3ccc(-c4cc[n+](C)cc4)cc3)c(=O)c-2nc2cc(C)c(C)cc21)OC(C)=O.[I-].[I-] (centres unmarked) [FL-08, 1-{3-[7,8-dimethyl-2,4-dioxo-10-(2,3,4,5-tetraacetoxypentyl)-4,10-dihydro-2H-benzo[g]pteridin-3-yl]propyl}methyl-[4,4′]bipyridinyl-1-ium diiodide]	–	–	1 μM	1 μM
Cc1cc2nc3c(=O)n(CCN)c(=O)nc-3n(CCN)c2cc1C [FL-02, 3,10-bis(2′-aminoeth-1′-yl)-7,8-dimethylbenzo[g]pteridine-2,4-dione hydrochloride]	–	–	10 μM	10 μM
Cc1cc2nc3c(=O)n(CC[N+](C)(C)C)c(=O)nc-3n(CC[N+](C)(C)C)c2cc1C.[I-].[I-] [FL-17, 3,10-bis(2-trimethylammoniumethyl)-7,8-dimethyl-10H-benzo[g]pteridine-2,4-dione dibromide]	100 μM	100 μM	–	–
Cc1cc2nc3c(=O)n(CCN)c(=O)nc-3n(CC[N+](C)(C)CCN)c2cc1C.Cl.Cl.[Cl-] [FL-24, (2-aminoethyl)-{2-[3-(2-aminoethyl)-7,8-dimethyl-2,4-dioxo-3,4-dihydro-2H-benzo[g]pteridin-10-yl]ethyl}dimethylammonium chloride dihydrochloride]	>100^(*^) μM	10 μM	–	–
CCCCn1c2nc(=O)n(CCC[n+]3ccc(-c4cc[n+](C)cc4)cc3)c(=O)c-2nc2cc(C)c(C)cc21.[I-].[I-] [FL-08b, 1-{3-[7,8-dimethyl-2,4-dioxo-10-(butyl)-4,10-dihydro-2H-benzo[g]pteridin-3-yl]-propyl}methyl-[4,4′]bipyridinyl-1-ium diiodide]	–	–	50 μM	10 μM
Cc1cc2nc3c(=O)[nH]c(=O)nc-3n(CC(OC(=O)C(N)CCCCN)C(OC(=O)C(N)CCCCN)C(COC(=O)C(N)CCCCN)OC(=O)C(N)CCCCN)c2cc1C (centres unmarked)	–	–	10 μM	10 μM
Cc1cc2nc3c(=O)n(CC[N+](C)(C)C)c(=O)nc-3n(CC[N+](C)(C)CC[N+](C)(C)C)c2cc1C.[Br-].[Br-].[Br-] [FL-26, 3-(2-trimethylammoniumethyl)-10-{2-[(2-trimethylammoniumethyl)dimethyl-ammonium]ethyl}-7,8-dimethyl-10H-benzo[g]pteridine-2,4-dione tribromide]	>100^(*^) μM	10 μM	–	–
CC[N+](CC)(CC)Cc1cc2c(cc1C)nc1c(=O)n(CCN)c(=O)nc-1n2CCN.Cl.Cl.[Br-] [FL-13, [3,10-bis(2-aminoethyl)-7-methyl-2,4-dioxo-2,3,4,10-tetrahydro-benzo[g]pteridin-8-ylmethyl]triethylammonium bromide dihydrochloride]	10 μM	10 μM	–	–

Reference: patent US9745302B2 (TriOptoTec GmbH, priority 2011, dated 2017)
